Patent US20240034729A9, “HETEROCYCLIC COMPOUND, INTERMEDIATE, PREPARATION METHOD THEREFOR AND APPLICATION THEREOF” (WUHAN LL SCIENCE AND TECHNOLOGY DEVELOPMENT CO., LTD., priority 2018, published 2024)
Read-outs that look alike come from different tables or passages of the source.

Experiments:
[1] = In vitro metabolic stability, guinea pig liver microsome; type: in vitro ADME; conditions: liver microsomes, 1 mg/mL liver microsome protein, 37° C., NA = essentially not metabolized, read-out: T1/2 in guinea pig liver microsome
Method: (§1) The in vitro metabolic stability of the compounds disclosed herein was determined through incubation of liver microsomes of various species. A proper amount of test compound was added into a liver microsome reaction system (1 mg/mL liver microsome protein, 25 U/mL glucose-6 phosphate dehydrogenase, 1 mM NADP, 6 mM D-glucose 6-phosphate and 5 mM MgCl2), and then the mixture was incubated in a water bath kettle at 37° C. to start the reaction. At each time point, 100 μL of the reaction mixture was added into a centrifuge tube containing 400 μL of internal standard working solution (containing a 200 ng/mL solution of dexamethasone, diclofenac, tolbutamide and labetalol in acetonitrile) precooled at 0° C. so as to terminate the reaction, and the mixture was then centrifuged at 10,000 g for 10 min at 4° C. The supernatant was collected for LC-MS assay so as to obtain the values of in vitro metabolic half-life of the test compounds in liver microsomes of various species.

[2] = In vitro metabolic stability, human liver microsome; type: in vitro ADME; conditions: liver microsomes, 1 mg/mL liver microsome protein, 37° C., NA = essentially not metabolized, read-out: T1/2 in human liver microsome
Method: as §1, with “A proper amount of test compound was added into a liver microsome reaction system (1 mg/mL liver microsome protein, 25 U/mL glucose-6 phosphate dehydrogenase, 1 mM NADP, 6 mM D-glucose 6-phosphate and 5 mM MgCl2), and then the mixture was incubated in a water bath kettle at 37° C. to start the reaction.” left out

[3] = In vitro metabolic stability, rat liver microsome; type: in vitro ADME; conditions: liver microsomes, 1 mg/mL liver microsome protein, 37° C., NA = essentially not metabolized, read-out: T1/2 in rat liver microsome
Method: as §1, with “A proper amount of test compound was added into a liver microsome reaction system (1 mg/mL liver microsome protein, 25 U/mL glucose-6 phosphate dehydrogenase, 1 mM NADP, 6 mM D-glucose 6-phosphate and 5 mM MgCl2), and then the mixture was incubated in a water bath kettle at 37° C. to start the reaction.” left out

[4] = target: hP2X2/3 (heterodimeric receptors formed by human purinergic P2X receptors subtype 2 and subtype 3) (Homo sapiens (Human), UniProt P56373+Q9UBL9); test: FLIPR calcium assay, hP2X2/3 expressed in HEK293 cells (P2X2/3 receptor selectivity); type: cell-based; conditions: for IC50: HEK293 cells expressing hP2X2/3, agonist BZ-ATP 5 μM, unit inferred
[5] = target: hP2X3 (human purinergic P2X receptor subtype 3) (Homo sapiens (Human), UniProt P56373); test: FLIPR calcium assay, hP2X3 expressed in HEK293 cells; type: cell-based; conditions: read-out: P2X3 IC50
[6] = In vitro cytotoxicity assay, CCK-8 method; type: cell-based; conditions: human, HepG2 cells
Method: In vitro cytotoxicity assay for the compounds disclosed herein was performed in HepG2 cells using the CCK-8 method. HepG2 cells (Beina Bio) in the logarithmic growth phase were collected, the concentration of cell suspension was adjusted, and then the cells were plated on a 96-well cell culture plate at 50,000 cells/well. The cells were then incubated overnight in a cell incubator of 5% […] at 37° C., and after 80-90% cell confluence was achieved, test compounds or vehicle (DMSO) at various concentration gradients were added after medium change. The plate was incubated in a cell incubator of 5% […] at 37° C. for 48 h. After the treatment, the medium in the plate was discarded. The plate was washed twice with PBS, added with CCK-8 working solution (Beyotime) at 100 μL per well, and then incubated at 37° C. for 1.5 h away from light. Absorbance at OD450nm was measured for each well on a microplate reader, and CC50 value of each compound was analyzed and calculated.

Sequence of hP2X3 (human purinergic P2X receptor subtype 3) (P56373 whole entry): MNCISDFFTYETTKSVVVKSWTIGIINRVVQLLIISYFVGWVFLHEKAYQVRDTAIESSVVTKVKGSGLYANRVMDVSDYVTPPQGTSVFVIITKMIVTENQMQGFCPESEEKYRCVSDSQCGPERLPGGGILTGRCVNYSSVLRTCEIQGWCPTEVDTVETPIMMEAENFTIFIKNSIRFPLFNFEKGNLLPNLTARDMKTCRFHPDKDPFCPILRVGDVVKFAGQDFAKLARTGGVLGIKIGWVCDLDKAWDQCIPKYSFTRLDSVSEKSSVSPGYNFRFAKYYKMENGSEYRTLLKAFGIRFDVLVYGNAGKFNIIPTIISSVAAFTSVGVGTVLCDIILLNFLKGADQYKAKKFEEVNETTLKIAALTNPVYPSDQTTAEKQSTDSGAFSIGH
Sequence of hP2X2/3 (heterodimeric receptors formed by human purinergic P2X receptors subtype 2 and subtype 3) (P56373 whole entry): as above
Sequence of hP2X2/3 (heterodimeric receptors formed by human purinergic P2X receptors subtype 2 and subtype 3) (Q9UBL9 whole entry): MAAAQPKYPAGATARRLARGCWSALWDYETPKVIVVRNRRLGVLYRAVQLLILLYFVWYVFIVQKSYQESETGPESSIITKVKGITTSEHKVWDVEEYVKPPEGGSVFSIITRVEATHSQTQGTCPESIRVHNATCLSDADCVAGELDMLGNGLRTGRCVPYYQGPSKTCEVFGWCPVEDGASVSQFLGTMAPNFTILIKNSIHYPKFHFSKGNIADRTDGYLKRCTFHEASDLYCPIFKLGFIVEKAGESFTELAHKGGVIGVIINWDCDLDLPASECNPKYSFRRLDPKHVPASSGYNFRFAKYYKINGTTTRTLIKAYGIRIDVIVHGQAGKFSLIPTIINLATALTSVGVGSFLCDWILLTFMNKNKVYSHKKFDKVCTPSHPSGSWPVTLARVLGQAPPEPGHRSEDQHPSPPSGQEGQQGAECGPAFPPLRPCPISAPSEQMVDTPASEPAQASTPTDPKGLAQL

| Structure (SMILES) | half-life [1] | half-life [2] | half-life [3] | Folds of selectivity [4] | IC50 [4] | IC50 [5] | CC50 at 48 h [6] | IC50 ([5]; HEK293 cells expressing hP2X3, agonist BZ-ATP 2.5 μM, class symbols) |
| --- | --- | --- | --- | --- | --- | --- | --- | --- |
| COC(=O)N1CCO[C@@H](Cc2c(-c3c(F)cc(-c4ccccn4)cc3F)nc3cc(C)ccn23)C1 [Compound 17, methyl (S)-2-((2-(2,6-difluoro-4-(pyridin-2-yl)phenyl)-7-methylimidazo[1,2-a]pyridin-3-yl)methyl)morpholine-4-carboxylate] | 0.143 h | 16.6 h | 0.323 h | B (key: A: folds of selectivity >1000; B: 200< folds of selectivity ≤1000; C: folds of selectivity ≤200) | 29.8 µM | 0.01 to 0.05 µM | 51 µM | – |
| COC(=O)N1CCO[C@@H](Cc2c(-c3c(F)cc(-c4ccc[nH]4)cc3F)nc3cc(C)ccn23)C1 [Compound 4, methyl (S)-2-((2-(2,6-difluoro-4-(1H-pyrrol-2-yl)phenyl)-7-methylimidazo[1,2-a]pyridin-3-yl)methyl)morpholine-4-carboxylate] | 0.073 h | 1.02 h | 0.0818 h | A (key: A: folds of selectivity >1000; B: 200< folds of selectivity ≤1000; C: folds of selectivity ≤200) | 14.3 µM | < 0.01 µM | 13.2 µM | – |
| COC(=O)N1CCO[C@@H](Cc2c(-c3c(F)cc(N4CC=CC4=O)cc3F)nc3cc(C)ccn23)C1 [Compound 169, methyl (S)-2-((2-(2,6-difluoro-4-(2-carbonyl-2,5-dihydro-1H-pyrrol-1-yl)phenyl)-7-methylimidazo[1,2-a]pyridin-3-yl)methyl)morpholine-4-carboxylate] | 2.74 h | 13.8 h | 0.591 h | A (key: A: folds of selectivity >1000; B: 200< folds of selectivity ≤1000; C: folds of selectivity ≤200) | > 60 µM | – | > 100 µM | – |
| COC(=O)N1CCO[C@@H](Cc2c(-c3c(F)cc(-c4cc[nH]n4)cc3F)nc3cc(C)ccn23)C1 [Compound 15, methyl (S)-2-((2-(2,6-difluoro-4-(1H-pyrazol-3-yl)phenyl)-7-methylimidazo[1,2-a]pyridin-3-yl)methyl)morpholine-4-carboxylate] | 0.275 h | 3.18 h | 0.423 h | B (key: A: folds of selectivity >1000; B: 200< folds of selectivity ≤1000; C: folds of selectivity ≤200) | 21.6 µM | < 0.01 µM | 52.6 µM | – |
| COC(=O)N1CCO[C@@H](Cc2c(-c3c(F)cc(S(N)(=O)=O)cc3F)nc3cc(C)ccn23)C1 [Compound 171, methyl (S)-2-((2-(2,6-difluoro-4-sulfamoylphenyl)-7-methylimidazo[1,2-a]pyridin-3-yl)methyl)morpholine-4-carboxylate] | 2.33 h | 8.72 h | 0.141 h | 45975 | 36.8 µM | 0.0021 µM | 200 µM | – |
| COC(=O)N1CCO[C@@H](Cc2c(-c3cc(F)c(S(N)(=O)=O)cc3Cl)nc3cc(Cl)ccn23)C1 [Compound 181, methyl (S)-2-((7-chloro-2-(2-chloro-5-fluoro-4-sulfamoylphenyl)imidazo[1,2-a]pyridin-3-yl)methyl)morpholine-4-carboxylate] | 3.91 h | 23.3 h | 3.13 h | – | – | 0.0018 µM | 138 µM | – |
| COC(=O)N1CCO[C@@H](Cc2c(-c3c(F)cc(N4C(=O)CCC4=O)cc3F)nc3cc(C)ccn23)C1 [Compound 26, methyl (S)-2-((2-(4-(2,5-dioxopyrrolidin-1-yl)-2,6-difluorophenyl)-7-methylimidazo[1,2-a]pyridin-3-yl)methyl)morpholine-4-carboxylate] | 2.13 h | 4.22 h | 1.35 h | – | – | – | > 100 µM | 0.05 to 0.2 µM |
| COC(=O)N1CCO[C@@H](Cc2c(-c3ccc(S(N)(=O)=O)cc3C)nc3cc(C)ccn23)C1 [Compound 184, methyl (S)-2-((7-methyl-2-(2-methyl-4-sulfamoylphenyl)imidazo[1,2-a]pyridin-3-yl)methyl)morpholine-4-carboxylate] | 2.89 h | 406 h | 0.0943 h | – | – | 0.0056 µM | > 200 µM | – |
| COC(=O)N1CCO[C@@H](Cc2c(-c3cnc(-n4cccn4)cc3C)nc3cc(C)ccn23)C1 [Compound 168, methyl (S)-2-((7-methyl-2-(4-methyl-6-(1H-pyrazol-1-yl)pyridin-3-yl)imidazo[1,2-a]pyridin-3-yl)methyl)morpholine-4-carboxylate] | 0.487 h | 8.71 h | 0.96 h | A (key: A: folds of selectivity >1000; B: 200< folds of selectivity ≤1000; C: folds of selectivity ≤200) | > 60 µM | 0.01 to 0.05 µM | > 100 µM | – |
| COC(=O)Nc1cc(F)c(-c2nc3cc(C)ccn3c2C[C@H]2CN(C(=O)OC)CCO2)c(F)c1 [Compound 3, methyl (S)-2-((2-(2,6-difluoro-4-(methoxycarbonylamino)phenyl)-7-methylimidazo[1,2-a]pyridin-3-yl)-methyl)morpholine-4-carboxylate] | 0.842 h | 4.34 h | 0.479 h | A (key: A: folds of selectivity >1000; B: 200< folds of selectivity ≤1000; C: folds of selectivity ≤200) | > 60 µM | 0.01 to 0.05 µM | 59.3 µM | – |
| COC(=O)N1CCO[C@@H](Cc2c(-c3c(F)cc(-c4ncco4)cc3F)nc3cc(C)ccn23)C1 [Compound 10, methyl (S)-2-((2-(2,6-difluoro-4-(oxazol-2-yl)phenyl)-7-methylimidazo[1,2-a]pyridin-3-yl)methyl)morpholine-4-carboxylate] | 0.225 h | 3.71 h | 0.513 h | – | – | – | 15.8 µM | – |
| COC(=O)N1CCO[C@@H](Cc2c(-c3c(F)cc(S(N)(=O)=O)cc3F)nc3cc(C)c(F)cn23)C1 [Compound 182, methyl (S)-2-((2-(2,6-difluoro-4-sulfamoylphenyl)-6-fluoro-7-methylimidazo[1,2-a]pyridin-3-yl)methyl)morpholine-4-carboxylate] | 1.02 h | 3.62 h | 0.182 h | – | – | 0.0035 µM | > 200 µM | – |
| COC(=O)N1CCO[C@@H](Cc2c(-c3ccc(S(N)(=O)=O)cc3Cl)nc3cc(C)ccn23)C1 [Compound 176, methyl (S)-2-((2-(2-chloro-4-sulfamoylphenyl)-7-methylimidazo[1,2-a]pyridin-3-yl)methyl)morpholine-4-carboxylate] | 1.02 h | 3.93 h | 0.0602 h | – | – | 0.0075 µM | > 200 µM | – |
| COC(=O)N1CCO[C@@H](Cc2c(-c3c(F)cc(-n4ccnc4)cc3F)nc3cc(C)ccn23)C1 [Compound 5, methyl (S)-2-((2-(2,6-difluoro-4-(1H-imidazol-1-yl)phenyl)-7-methylimidazo[1,2-a]pyridin-3-yl)methyl)morpholine-4-carboxylate] | 0.794 h | 10.8 h | 0.622 h | – | – | – | 72 µM | – |
